Results: ChEMBL document CHEMBL1145849, “QSAR and the rational design of long-acting dual D2-receptor/beta 2-adrenoceptor agonists” (J Med Chem, 2003)

Legend:
[1] = biological target: Beta-2 adrenergic receptor (Cavia porcellus) (UniProt Q8K4Z4)
Description: In vitro beta-2 duration was determined using electrically stimulated guinea-pig isolated trachea superfusion system

[2] = biological target: Beta-2 adrenergic receptor (Cavia porcellus) (UniProt Q8K4Z4); conditions: Trachea
Description: Beta-2-adrenoceptor potency was determined in rings of guinea-pig isolated trachea

[3] = physchem; conditions: octanol/water, pH 7.4, logD
[4] = physchem
Description: Ionization constant (pKa)

Chain of Beta-2 adrenergic receptor (Cavia porcellus) (Q8K4Z4 whole entry, looked up): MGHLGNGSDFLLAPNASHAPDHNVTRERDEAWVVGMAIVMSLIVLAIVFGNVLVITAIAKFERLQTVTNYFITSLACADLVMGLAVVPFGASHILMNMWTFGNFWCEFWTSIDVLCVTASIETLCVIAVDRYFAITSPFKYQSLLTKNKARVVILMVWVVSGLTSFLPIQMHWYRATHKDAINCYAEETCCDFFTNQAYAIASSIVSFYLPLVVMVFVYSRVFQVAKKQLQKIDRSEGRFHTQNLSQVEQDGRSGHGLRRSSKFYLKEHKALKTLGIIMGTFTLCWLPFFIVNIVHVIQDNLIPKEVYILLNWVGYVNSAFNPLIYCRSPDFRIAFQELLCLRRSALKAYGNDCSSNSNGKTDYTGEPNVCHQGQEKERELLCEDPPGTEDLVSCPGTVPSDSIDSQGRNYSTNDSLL

## Oc1nc2c(O)ccc(CCNCCCSCCOCCCc3ccccc3)c2s1
[1]
  Beta2 duration: > 180 min
[2]
  p[A]50: 7.86
[3]
  logD: 2.8
[4]
  pKa: > 8

## Oc1nc2c(O)ccc(CCNCCC(F)(F)CCCOCCc3ccccc3)c2s1
[1]
  Beta2 duration: > 180 min
[2]
  p[A]50: 7.77
[3]
  logD: 3.26
[4]
  pKa: > 8

## Oc1nc2cccc(CCNCCCCCCNCCc3ccc(O)c4nc(O)sc34)c2s1
[1]
  Beta2 duration: 45 min
[2]
  p[A]50: 7.86
[3]
  logD: 1
[4]
  pKa: > 8

## O=S(=O)(CCCOCCc1nccs1)CCNCCc1ccc(O)c2nc(O)sc12
[1]
  Beta2 duration: 45 min
[2]
  p[A]50: 7.72
[3]
  logD: 2.35
[4]
  pKa: < 8

## Cc1cnc(CCOCCCS(=O)(=O)CCNCCc2ccc(O)c3nc(O)sc23)s1
[1]
  Beta2 duration: 126 min
[2]
  p[A]50: 7.61
[3]
  logD: 2.87
[4]
  pKa: < 8

## [O-][S+](CCCNCCc1ccc(O)c2nc(O)sc12)CCOCCc1ccccc1 (stereo not drawn)
[1]
  Beta2 duration: 84 min
[2]
  p[A]50: 8.47
[3]
  logD: 1.12
[4]
  pKa: > 8

## O=C(NCCCCCCNCCc1ccc(O)c2nc(O)sc12)Nc1ccccc1
[1]
  Beta2 duration: 60 min
[2]
  p[A]50: 7.01
[3]
  logD: 1.26
[4]
  pKa: > 8

## O=S(=O)(CCCOCCCc1ccccc1)CCNCCc1ccc(O)c2nc(O)sc12
[1]
  Beta2 duration: 157 min
[2]
  p[A]50: 7.35
[3]
  logD: 3.13
[4]
  pKa: < 8

## O=S(=O)(CCCOCCc1ccc(O)cc1)CCNCCc1ccc(O)c2nc(O)sc12
[1]
  Beta2 duration: 32 min
[2]
  p[A]50: 8.65
[3]
  logD: 1.91
[4]
  pKa: < 8

## O=C(CCOCCCc1ccccc1)NCCNCCc1ccc(O)c2nc(O)sc12
[1]
  Beta2 duration: 150 min
[2]
  p[A]50: 8.63
[3]
  logD: 1.91
[4]
  pKa: > 8

## O=S(=O)(CCCNCCc1ccc(O)c2nc(O)sc12)CCOCCOc1ccccc1
[1]
  Beta2 duration: 52 min
[2]
  p[A]50: 7.44
[3]
  logD: 1.13
[4]
  pKa: > 8

## O=S(=O)(CCCNCCc1ccc(O)c2nc(O)sc12)CCOCCCc1ccccc1
[1]
  Beta2 duration: > 180 min
[2]
  p[A]50: 8.69
[3]
  logD: 2.1
[4]
  pKa: > 8

## Oc1nc2c(O)ccc(CCNCCCSCCOCCc3ccccn3)c2s1
[1]
  Beta2 duration: 75 min
[2]
  p[A]50: 7.32
[3]
  logD: 0.83
[4]
  pKa: > 8

## O=[N+]([O-])c1ccc(CCOCCCS(=O)(=O)CCNCCc2ccc(O)c3nc(O)sc23)cc1
[1]
  Beta2 duration: 77 min
[2]
  p[A]50: 6.73
[3]
  logD: 2.32
[4]
  pKa: < 8

## Oc1nc2c(O)ccc(CCNCCCCCCNCC(F)(F)c3ccccc3)c2s1
[1]
  Beta2 duration: > 180 min
[2]
  p[A]50: 6.84
[3]
  logD: 1.57
[4]
  pKa: > 8

## O=[N+]([O-])c1ccc(CCOCCCSCCNCCc2ccc(O)c3nc(O)sc23)cc1
[1]
  Beta2 duration: > 180 min
[2]
  p[A]50: 6.78
[3]
  logD: 3.29
[4]
  pKa: > 8

## O=S(=O)(CCCCCCNCCc1ccc(O)c2nc(O)sc12)CCc1ccccc1
[1]
  Beta2 duration: > 180 min
[2]
  p[A]50: 7
[3]
  logD: 1.44
[4]
  pKa: > 8

## O=S(=O)(CCCOCCc1ccccn1)CCNCCc1ccc(O)c2nc(O)sc12
[1]
  Beta2 duration: 24 min
[2]
  p[A]50: 7.49
[3]
  logD: 0.95
[4]
  pKa: < 8

## O=S(=O)(Nc1ccc(CCOCCCSCCNCCc2ccc(O)c3nc(O)sc23)cc1)c1ccccc1
[1]
  Beta2 duration: > 180 min
[2]
  p[A]50: 7.57
[3]
  logD: 3.52
[4]
  pKa: > 8

## O=S(=O)(CCNCCc1ccc(O)c2nc(O)sc12)NCCOCCc1ccccc1
[1]
  Beta2 duration: 79 min
[2]
  p[A]50: 6.48
[3]
  logD: 2.38
[4]
  pKa: > 8

## Oc1nc2c(O)ccc(CCNCCCCCCOCCc3ccccn3)c2s1
[1]
  Beta2 duration: 109 min
[2]
  p[A]50: 8.12
[4]
  pKa: > 8

## O=S(=O)(CCCOCCc1ccc(NS(=O)(=O)c2ccccc2)cc1)CCNCCc1ccc(O)c2nc(O)sc12
[1]
  Beta2 duration: > 180 min
[2]
  p[A]50: 7.7
[3]
  logD: 2.88
[4]
  pKa: < 8

## O=C(CCCOCCc1ccccc1)NCCNCCc1ccc(O)c2nc(O)sc12
[1]
  Beta2 duration: 71 min
[2]
  p[A]50: 7.56
[3]
  logD: 1.55
[4]
  pKa: > 8

## Oc1nc2c(O)ccc(CCNCCCCCCOCCc3nccs3)c2s1
[1]
  Beta2 duration: > 180 min
[2]
  p[A]50: 7.78
[4]
  pKa: > 8

## O=S(=O)(CCCNCCc1ccc(O)c2nc(O)sc12)CCNCCOc1ccccc1
[1]
  Beta2 duration: 28 min
[2]
  p[A]50: 6.73
[3]
  logD: 0.9
[4]
  pKa: > 8

## Nc1ccc(CCOCCCCCCNCCc2ccc(O)c3nc(O)sc23)cc1
[1]
  Beta2 duration: > 180 min
[2]
  p[A]50: 9.4
[4]
  pKa: > 8

## CC(C)(CCCCOCCc1ccc([N+](=O)[O-])cc1)CNCCc1ccc(O)c2nc(O)sc12
[1]
  Beta2 duration: > 180 min
[2]
  p[A]50: 6.35
[4]
  pKa: > 8

## Oc1nc2c(O)ccc(CCNCCCCCOCCCc3ccccc3)c2s1
[1]
  Beta2 duration: > 180 min
[2]
  p[A]50: 7
[4]
  pKa: > 8

## CC(C)(CCCCOCCc1ccccc1N)CNCCc1ccc(O)c2nc(O)sc12
[1]
  Beta2 duration: > 180 min
[2]
  p[A]50: 7.58
[4]
  pKa: > 8

## NC(=O)Nc1ccc(CCOCCCCCCNCCc2ccc(O)c3nc(O)sc23)cc1
[1]
  Beta2 duration: 140 min
[2]
  p[A]50: 9.2
[4]
  pKa: > 8

## Oc1nc2c(O)ccc(CCNCCNCCCOCCc3ccccc3)c2s1
[1]
  Beta2 duration: 32 min
[2]
  p[A]50: 7.01
[3]
  logD: 0.88
[4]
  pKa: > 8

## Oc1nc2c(O)ccc(CCNCCSCCCOCCc3ccccc3)c2s1
[1]
  Beta2 duration: > 180 min
[2]
  p[A]50: 8.36
[3]
  logD: 2.86
[4]
  pKa: > 8

## O=S(=O)(CCOCCc1ccccc1)NCCCNCCc1ccc(O)c2nc(O)sc12
[1]
  Beta2 duration: 69 min
[2]
  p[A]50: 7.51
[3]
  logD: 1.22
[4]
  pKa: > 8

## Nc1ccccc1CCOCCS(=O)(=O)CCCNCCc1ccc(O)c2nc(O)sc12
[1]
  Beta2 duration: 33 min
[2]
  p[A]50: 7.46
[3]
  logD: 1.17
[4]
  pKa: > 8

## Oc1nc2c(O)ccc(CCNCCSCCCOCCc3ccccn3)c2s1
[1]
  Beta2 duration: > 180 min
[2]
  p[A]50: 7.51
[3]
  logD: 1.75
[4]
  pKa: > 8

## Oc1ccc(CCOCCCCCCNCCc2ccc(O)c3nc(O)sc23)cc1
[1]
  Beta2 duration: > 180 min
[2]
  p[A]50: 8.81
[4]
  pKa: > 8

## Oc1nc2c(O)ccc(CCNCCSCCCOCCCc3ccccc3)c2s1
[1]
  Beta2 duration: > 180 min
[2]
  p[A]50: 7.27
[3]
  logD: 3.61
[4]
  pKa: > 8

## Oc1nc2c(O)ccc(CCNCCCSCCOCCc3cccc4ccccc34)c2s1
[1]
  Beta2 duration: > 180 min
[2]
  p[A]50: 5.8
[4]
  pKa: > 8

## O=S(=O)(CCCOCCCCc1ccccc1)CCNCCc1ccc(O)c2nc(O)sc12
[1]
  Beta2 duration: > 180 min
[2]
  p[A]50: 7.76
[3]
  logD: 3.62
[4]
  pKa: < 8

## CC(C)(CNCCc1ccc(O)c2nc(O)sc12)CSCCOCCc1ccccc1N
[1]
  Beta2 duration: > 180 min
[2]
  p[A]50: 7.13
[3]
  logD: 3.44
[4]
  pKa: > 8

## CC(C)(CCCCOCCc1cccc(N)c1)CNCCc1ccc(O)c2nc(O)sc12
[1]
  Beta2 duration: > 180 min
[2]
  p[A]50: 8.39
[4]
  pKa: > 8

## O=S(=O)(CCCNCCc1ccc(O)c2nc(O)sc12)NCCOCc1ccccc1
[1]
  Beta2 duration: 72 min
[2]
  p[A]50: 7.4
[3]
  logD: 1.11
[4]
  pKa: > 8

## CC(CCCCCOCCc1ccccc1)NCCc1ccc(O)c2nc(O)sc12 (stereo not drawn)
[1]
  Beta2 duration: > 180 min
[2]
  p[A]50: 8.08
[4]
  pKa: > 8

## O=S(=O)(CCCNCCc1ccc(O)c2nc(O)sc12)CCOCCc1cccc2ccccc12
[1]
  Beta2 duration: > 180 min
[2]
  p[A]50: 7.73
[3]
  logD: 2.54
[4]
  pKa: > 8

## O=S(=O)(CCCOCCc1ccc(Br)cc1)CCNCCc1ccc(O)c2nc(O)sc12
[1]
  Beta2 duration: > 180 min
[2]
  p[A]50: 7.4
[3]
  logD: 3.36
[4]
  pKa: > 8

## Oc1nc2c(O)ccc(CCNCCCSCCOCCOc3ccccc3)c2s1
[1]
  Beta2 duration: > 180 min
[2]
  p[A]50: 7.06
[3]
  logD: 2.11
[4]
  pKa: > 8
